Experimental data taken from patent US8110687B2, “Bicyclic compounds with kinase inhibitory activity” (Millennium Pharmaceuticals, Inc., priority 2005, dated 2012).

Test system: phospho-ERK formation (Raf kinase activity) in A375 cells
Assay: Phospho-ERK ELISA assay
Assay type: cell-based
Conditions: Homo sapiens, A-375, 3 h, 3 hours with inhibitor, read-out: IC50, inhibition of the formation of phospho-ERK
Protocol: Inhibition of Raf kinase activity in whole cell systems can be assessed by determining the decrease in phosphorylation of Raf kinase substrates. Any known Raf kinase substrate can be used to measure inhibition of Raf kinase activity in a whole cell system.
Medium was removed, and cells were incubated with Raf kinase inhibitors for 3 hours at 37° C. Medium was removed, and cells were fixed with 4% paraformaldehyde for 15 minutes at room temperature.
Methanol was added for 15 min. Cells were removed and blocked with 10% sheep serum and 1% BSA in PBS overnight at 4° C. Cells were incubated with anti-p44/42MAPK antibody (1:100, Cell Signaling Technologies, #9101L) (20 μL/well) for one hour at room temperature. After washing with PBS three times, cells were stained with anti-rabbit horseradish peroxidase-linked antibody from donkey (1:100, Amersham Bioscience #NA934V) for 1 hour at room temperature. Cells were washed three times with 0.5% Tween-20 in PBS and twice with PBS. 3,3′, 5,5′-Tetramethylbenzidine (TMB) liquid substrate system (Sigma, #T8665) (50 μL/well) was added, and cells were incubated for 30-45 minutes at room temperature. Optical density was read at 650 nm. Cells were then washed 3-5 times with PBS to remove color solution. Results were normalized for the protein content in each well using a BCA protein assay kit (Pierce).

Row | IC50 [µM] | SMILES
1 | ≤ 25 | CN1Cc2ccc(Oc3ccnc(C4=NCCN4)c3)cc2CC1C(=O)Nc1ccc(Cl)c(C(F)(F)F)c1 (centres unmarked) [Compound I-11, N-[4-Chloro-3-(trifluoromethyl)phenyl]-6-{[2-(4,5-dihydro-1H-imidazol-2-yl)pyridin-4-yl]oxy}-2-methyl-1,2,3,4-tetrahydroisoquinoline-3-carboxamide]
2 | ≤ 25 | O=C(Nc1ccc(Cl)c(C(F)(F)F)c1)C1CCc2cccc(Oc3ccnc(C4=NCCN4)c3)c2C1 (centres unmarked) [Compound I-21, N-[4-chloro-3-(trifluoromethyl)phenyl]-8-{[2-(4,5-dihydro-1H-imidazol-2-yl)pyridin-4-yl]oxy}-1,2,3,4-tetrahydronaphthalene-2-carboxamide]
3 | ≤ 25 | CNC(=O)c1cc(Oc2ccc3c(c2)CC(C(=O)Nc2cccc(C(C)(C)C)c2)CC3)ccn1 (centres unmarked) [Compound I-23, 4-[(7-{[(3-tert-butylphenyl)amino]carbonyl}-5,6,7,8-tetrahydronaphthalen-2-yl)oxy]-N-methylpyridine-2-carboxamide]
4 | ≤ 25 | CNC(=O)c1cc(Oc2ccc3c(c2)CC(C(=O)Nc2ccc(CN)c(C(F)(F)F)c2)CC3)ccn1 (centres unmarked) [Compound I-28, 4-{[7-({[4-(aminomethyl)-3-(trifluoromethyl)phenyl]amino}carbonyl)-5,6,7,8-tetrahydronaphthalen-2-yl]oxy}-N-methylpyridine-2-carboxamide]
5 | ≤ 25 | CNC(=O)c1cc(Oc2ccc3c(c2)CC(C(=O)Nc2ccc(CCN)cc2)CC3)ccn1 (centres unmarked) [Compound I-29, 4-{[7-({[4-(2-aminoethyl)phenyl]amino}carbonyl)-5,6,7,8-tetrahydronaphthalen-2-yl]oxy}-N-methylpyridine-2-carboxamide]
6 | ≤ 25 | O=C(Nc1ccc(Cl)c(C(F)(F)F)c1)c1cc2cc(Oc3ccnc(C4=NCCN4)c3)ccc2cn1 [Compound I-35, N-[4-chloro-3-(trifluoromethyl)phenyl]-6-{[2-(4,5-dihydro-1H-imidazol-2-yl)pyridin-4-yl]oxy}isoquinoline-3-carboxamide]
7 | ≤ 25 | CNC(=O)c1cc(Oc2ccc3c(c2)CC(C(=O)Nc2ccc(CN)cc2)CC3)ccn1 (centres unmarked) [Compound I-42, 4-{[7-({[4-(aminomethyl)phenyl]amino}carbonyl)-5,6,7,8-tetrahydronaphthalen-2-yl]oxy}-N-methylpyridine-2-carboxamide]
8 | ≤ 25 | O=C(Nc1ccc(Cl)c(C(F)(F)F)c1)c1ccc2ccc(Oc3ccnc(C4=NCCN4)c3)cc2n1 [Compound I-45, N-[4-chloro-3-(trifluoromethyl)phenyl]-7-{[2-(4,5-dihydro-1H-imidazol-2-yl)pyridin-4-yl]oxy}quinoline-2-carboxamide]
9 | ≤ 25 | O=C(Nc1ccc(Cl)c(C(F)(F)F)c1)c1ccc2ccc(Oc3ccnc(C4=NCCN4)c3)cc2c1 [Compound I-46, N-[4-chloro-3-(trifluoromethyl)phenyl]-7-{[2-(4,5-dihydro-1H-imidazol-2-yl)pyridin-4-yl]oxy}-2-naphthamide]
10 | ≤ 25 | O=C(Nc1cc(OC2CCNCC2)cc(C(F)(F)F)c1)c1ccc2ccc(Oc3ccnc(C4=NCCN4)c3)cc2c1 [Compound I-48, 7-{[2-(4,5-dihydro-1H-imidazol-2-yl)pyridin-4-yl]oxy}-N-[3-(piperidin-4-yloxy)-5-(trifluoromethyl)phenyl]-2-naphthamide]
11 | ≤ 25 | CC(C)(C)c1cccc(NC(=O)c2ccc3ccc(Oc4ccnc(C5=NCCN5)c4)cc3n2)c1 [Compound I-50, N-(3-tert-butylphenyl)-7-{[2-(4,5-dihydro-1H-imidazol-2-yl)pyridin-4-yl]oxy}quinoline-2-carboxamide]
12 | ≤ 25 | CNC(=O)c1cc(Oc2ccc3c(c2)CC(C(=O)Nc2cccc(CN)c2)CC3)ccn1 (centres unmarked) [Compound I-51, 4-{[7-({[3-(aminomethyl)phenyl]amino}carbonyl)-5,6,7,8-tetrahydronaphthalen-2-yl]oxy}-N-methylpyridine-2-carboxamide]
13 | ≤ 25 | O=C(Nc1ccc(Cl)c(C(F)(F)F)c1)C1Cc2cc(Oc3ccnc(C4=NCCN4)c3)ccc2CN1 (centres unmarked) [Compound I-54, N-[4-chloro-3-(trifluoromethyl)phenyl]-6-{[2-(4,5-dihydro-1H-imidazol-2-yl)pyridin-4-yl]oxy}-1,2,3,4-tetrahydroisoquinoline-3-carboxamide]
14 | ≤ 25 | CC(C)(C)c1cccc(NC(=O)c2ccc3ccc(Oc4ccnc(C(=N)N5CCCC5)c4)cc3c2)c1 [Compound I-93, N-(3-tert-butylphenyl)-7-({2-[imino(pyrrolidin-1-yl)methyl]pyridin-4-yl}oxy)-2-naphthamide]
15 | ≤ 25 | CC(C)(C)c1cccc(NC(=O)c2ccc3ccc(Oc4ccnc(C(=N)N5CCOCC5)c4)cc3c2)c1 [Compound I-99, N-(3-tert-butylphenyl)-7-({2-[imino(morpholin-4-yl)methyl]pyridin-4-yl}oxy)-2-naphthamide]
16 | ≤ 25 | CNC(=O)c1cc(Oc2ccc3c(c2)CC(C(=O)Nc2ccc(CN4CCCC4)c(C(F)(F)F)c2)CC3)ccn1 (centres unmarked) [Compound I-129, N-methyl-4-{[7-({[4-(pyrrolidin-1-ylmethyl)-3-(trifluoromethyl)phenyl]amino}carbonyl)-5,6,7,8-tetrahydronaphthalen-2-yl]oxy}pyridine-2-carboxamide]
17 | ≤ 25 | CN(C)CC(=O)Nc1cc(Oc2ccc3ccc(C(=O)Nc4ccc(Cl)c(C(F)(F)F)c4)cc3c2)ccn1 [Compound I-138, N-[4-chloro-3-(trifluoromethyl)phenyl]-7-[(2-{[(dimethylamino)acetyl]amino}pyridin-4-yl)oxy]-2-naphthamide]
18 | ≤ 25 | Nc1cc(Oc2ccc3ccc(C(=O)Nc4cc(OCCN5CCCC5)cc(C(F)(F)F)c4)cc3c2)ccn1 [Compound I-142, 7-[(2-aminopyridin-4-yl)oxy]-N-[3-(2-pyrrolidin-1-ylethoxy)-5-(trifluoromethyl)phenyl]-2-naphthamide]
19 | ≤ 25 | CC(C)(C)c1cccc(NC(=O)C2CCc3ccc(Oc4ccnc(-c5nc(C(=O)O)c[nH]5)c4)cc3C2)c1 (centres unmarked) [Compound I-155, 2-{4-[(7-{[(3-tert-Butylphenyl)amino]carbonyl}-5,6,7,8-tetrahydronaphthalen-2-yl)oxy]pyridin-2-yl}-1H-imidazole-4-carboxylic acid]
20 | ≤ 25 | CNC(=O)c1cc(Oc2ccc3ncc(C(=O)Nc4ccc(CN)c(C(F)(F)F)c4)cc3c2)ccn1 [Compound I-161, N-[4-(aminomethyl)-3-(trifluoromethyl)phenyl]-6-({2-[(methylamino)carbonyl]pyridin-4-yl}oxy)quinoline-3-carboxamide]
21 | ≤ 25 | Nc1cc(Oc2ccc3ccc(C(=O)Nc4ccc(Cl)c(C(F)(F)F)c4)cc3c2)ccn1 [Compound I-162, 7-[(2-aminopyridin-4-yl)oxy]-N-[4-chloro-3-(trifluoromethyl)phenyl]-2-naphthamide]
22 | ≤ 25 | COC(=O)NCc1cc(Oc2ccc3c(c2)CC(C(=O)Nc2cc(CN)cc(C(F)(F)F)c2)CC3)ccn1 (centres unmarked) [Compound I-192, methyl [(4-{[7-({[3-(aminomethyl)-5-(trifluoromethyl)phenyl]amino}carbonyl)-5,6,7,8-tetrahydronaphthalen-2-yl]oxy}pyridin-2-yl)methyl]carbamate]
23 | ≤ 25 | CC(C)(C)c1cccc(NC(=O)C2CCc3ccc(Oc4ccnc(C(=N)N5CCCC5)c4)cc3C2)c1 (centres unmarked) [Compound I-194, N-(3-tert-butylphenyl)-7-({2-[imino(pyrrolidin-1-yl)methyl]pyridin-4-yl}oxy)-1,2,3,4-tetraydronaphthalene-2-carboxamide]
24 | ≤ 25 | CC(=O)NCc1cc(Oc2ccc3c(c2)CC(C(=O)Nc2cc(CN)cc(C(F)(F)F)c2)CC3)ccn1 (centres unmarked) [Compound I-203, 7-({2-[(acetylamino)methyl]pyridin-4-yl}oxy)-N-[3-(aminomethyl)-5-(trifluoromethyl)phenyl]-1,2,3,4-tetrahydronaphthalene-2-carboxamide]
25 | ≤ 25 | NCc1cc(NC(=O)C2CCc3ccc(Oc4ccnc(-n5ccnc5)c4)cc3C2)cc(C(F)(F)F)c1 (centres unmarked) [Compound I-205, N-[3-(aminomethyl)-5-(trifluoromethyl)phenyl]-7-{[2-(1H-imidazol-1-yl)pyridin-4-yl]oxy}-1,2,3,4-tetrahydronaphthalene-2-carboxamide]
26 | ≤ 25 | NCc1cc(NC(=O)C2CCc3ccc(Oc4ccnc(-c5cnco5)c4)cc3C2)cc(C(F)(F)F)c1 (centres unmarked) [Compound I-210, N-[3-(aminomethyl)-5-(trifluoromethyl)phenyl]-7-{[2-(1,3-oxazol-5-yl)pyridin-4-yl]oxy}-1,2,3,4-tetrahydronaphthalene-2-carboxamide]
27 | ≤ 25 | CC(C)NC(=O)c1cc(Oc2ccc3c(c2)CC(C(=O)Nc2cc(CN)cc(C(F)(F)F)c2)CC3)ccn1 (centres unmarked) [Compound I-229, 4-{[7-({[3-(aminomethyl)-5-(trifluoromethyl)phenyl]amino}carbonyl)-5,6,7,8-tetrahydronaphthalen-2-yl]oxy}-N-isopropylpyridine-2-carboxamide]
28 | ≤ 25 | CC(C)(C)c1cccc(NC(=O)C2CCc3ccc(Oc4ccnc(N)c4)cc3C2)c1 (centres unmarked) [Compound I-235, 7-[(2-aminopyridin-4-yl)oxy]-N-(3-tert-butylphenyl)-1,2,3,4-tetrahydronaphthalene-2-carboxamide]

Row | SMILES | IC50 [µM]
29 | N#Cc1ccc(NC(=O)c2ccc3ccc(Oc4ccnc(N)c4)cc3c2)cc1C(F)(F)F [Compound I-158, 7-[(2-aminopyridin-4-yl)oxy]-N-[4-cyano-3-(trifluoromethyl)phenyl]-2-naphthamide] | ≤ 25
